From patent US5459148A, “Biphenyl derivatives and their use for the treatment of hypertension and cardiac disease” (Sankyo Company, Limited, priority 1992, dated 1995) come the findings set out here.

For the experiment, the target named is T1, AII receptor (Rattus norvegicus, UniProt P25095).
T1 construct: from tissue; host or cells: whole anesthetized male Wister-Imamichi rat (in vivo, blood pressure in the femoral artery)
T1 sequence (P25095 1-359): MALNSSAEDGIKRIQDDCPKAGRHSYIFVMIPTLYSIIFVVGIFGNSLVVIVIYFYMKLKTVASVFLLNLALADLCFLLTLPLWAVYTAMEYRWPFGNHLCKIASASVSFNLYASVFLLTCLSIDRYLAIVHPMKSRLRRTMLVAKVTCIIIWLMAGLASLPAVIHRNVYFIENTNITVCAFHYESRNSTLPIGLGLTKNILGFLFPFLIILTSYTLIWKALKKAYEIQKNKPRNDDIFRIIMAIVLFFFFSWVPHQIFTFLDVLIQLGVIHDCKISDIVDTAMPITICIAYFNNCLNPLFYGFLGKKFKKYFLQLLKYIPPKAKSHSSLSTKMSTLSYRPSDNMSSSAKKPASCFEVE
The experiment can be described thus: Inhibition of pressor response to intravenous angiotensin II (AII receptor blocking activity). It is filed as in vivo, rat (male Wister-Imamichi). The settings on record: 2 min, read-out: ID50 (dose required to inhibit the pressor response to intravenous angiotensin II by fifty percent). As for the experimental part:
Evaluation of AII receptor blocking activity by Inhibition of pressor response to angiotensin II
The biological activity of each compound was assessed by determining the dose required to inhibit the pressor response to intravenous angiotensin II by fifty percent (ID50) in rats. Male Wister-Imamichi rats, each weighing 300 to 400 g, were anesthesized by intraperitoneal injection of 100 mg/Kg of sodium thiobutabarbital [Inactin (trade name)] and two cannulae were inserted: one into the femoral artery for measuring blood pressure and the other into the femoral vein for injecting drugs. […] The percent inhibitions of the pressor response to angiotensin II by progressive increase of the test compound was used to calculate the value of ID50. Angiotensin II was used in this test dissolved in 0.5% bovine serum albumin (BSA) and the test compounds were dissolved in 100% dimethyl sulfoxide (DMSO).
Turning to `CCCCc1nc(C(C)(C)O)c(C(=O)O)n1Cc1ccc(-c2ccccc2C(=O)C(=O)O)cc1` [Example 2, 2-Butyl-4-(1-hydroxy-1-methylethyl)-1-[(2'-oxalobiphenyl-4-yl)methyl]imidazole-5-carboxylic acid], the ED50 is 0.026 mg/kg.
For the compound `CCCCc1nc(C(O)C(C)C)c(C(N)=O)n1Cc1ccc(-c2ccccc2C(=O)C(=O)O)cc1` (stereo not shown) [Example 12, 2-Butyl-4-(1-hydroxy-2-methylpropyl)-1-[(2'-oxalobiphenyl-4-yl)methyl]imidazole-5-carboxamide], the ED50 stood at 0.042 mg/kg.
Regarding `CCCc1nc(C(C)(C)O)c(-c2nnn[nH]2)n1Cc1ccc(-c2ccccc2C(=O)C(=O)O)cc1` [Example 7, {4'-[4-(1-Hydroxy-1-methylethyl)-2-propyl-5-(tetrazol-5-yl)imidazol-1-ylmethyl]biphenyl-2-yl}glyoxylic acid], the ED50 was 0.021 mg/kg.
With `CCCCc1nc(C(O)C(C)(C)C)c(C(N)=O)n1Cc1ccc(-c2ccccc2C(=O)C(=O)O)cc1` (stereo not shown) [Example 13, 2-Butyl-4-(1-hydroxy-2,2-dimethylpropyl)-1-[(2'-oxalobiphenyl-4-yl)methyl]imidazole-5-carboxamide], the ED50 is 0.048 mg/kg.
As to `CCCc1nc(C(C)(C)O)c(C(=O)O)n1Cc1ccc(-c2ccccc2C(=O)C(=O)O)cc1` [Example 1, 4-(1-Hydroxy-1-methylethyl)-1-[(2'-oxalobiphenyl-4-yl)methyl]-2-propylimidazole-5-carboxylic acid], the ED50 is 0.0065 mg/kg.
Consider `CCOCc1nc(C(C)(C)O)c(C(=O)O)n1Cc1ccc(-c2ccccc2C(=O)C(=O)O)cc1` [Example 14, 2-Ethoxymethyl-4-(1-hydroxy-1-methylethyl)-1-[(2'-oxalobiphenyl-4-yl)methyl]imidazole-5-carboxylic acid], for which the ED50 was 0.0096 mg/kg.
As to `CCCc1nc(C(C)(C)O)c(C(=O)O)n1Cc1ccc(-c2ccccc2C(=O)c2nnn[nH]2)cc1` [Example 20, 4-(1-Hydroxy-1-methylethyl)-1-{[2'-(tetrazol-5-ylcarbonyl)biphenyl-4-yl]methyl}-2-propylimidazole-5-carboxylic acid], the ED50 was determined as 0.026 mg/kg.
In the case of `CCCc1nc(C(O)C(C)(C)C)c(C(N)=O)n1Cc1ccc(-c2ccccc2C(=O)C(=O)O)cc1` (stereo not shown) [Example 11, 4-(1-Hydroxy-2,2-dimethylpropyl)-1-[(2'-oxalobiphenyl-4-yl)methyl]-2-propylimidazole-5-carboxamide], the ED50 came to 0.017 mg/kg.
As for `CCCc1nc(C(C)C)c(C(=O)O)n1Cc1ccc(-c2ccccc2C(=O)C(=O)O)cc1` [Example 9, 4-Isopropyl-1-[(2'-oxalobiphenyl-4-yl)methyl]-2-propylimidazole-5-carboxylic acid], the figure is 0.053 mg/kg; as for `C=C(C)c1nc(CCC)n(Cc2ccc(-c3ccccc3C(=O)C(=O)O)cc2)c1C(=O)O` [Example 8, 4-Isopropenyl-1-[(2'-oxalobiphenyl-4-yl)methyl]-2-propylimidazole-5-carboxylic acid], 0.06 mg/kg; as for `CCc1nc2c(C)cc(C)nc2n1Cc1ccc(-c2ccccc2C(=O)C(=O)O)cc1` [Example 16, 2-Ethyl-5,7-dimethyl-3-(2'-oxalobiphenyl-4-yl)methyl-3H-imidazo[4,5-b]pyridine], 0.024 mg/kg.
Turning to `CCCc1nc(CO)c(C(=O)O)n1Cc1ccc(-c2ccccc2C(=O)C(=O)O)cc1` [Example 6, 4-Hydroxymethyl-1-[(2'-oxalobiphenyl-4-yl)methyl]-2-propylimidazole-5-carboxylic acid], the ED50 is 0.02 mg/kg.
Regarding `CCCc1nc(C(O)C(C)C)c(C(N)=O)n1Cc1ccc(-c2ccccc2C(=O)C(=O)O)cc1` (stereo not shown) [Example 10, 4-(1-Hydroxy-2-methylpropyl)-1-[(2'-oxalobiphenyl-4-yl)-methyl]-2-propylimidazole-5-carboxamide], the ED50 stood at 0.022 mg/kg.
